Columns and labels:
[1] = system: PNs, Fmr1-KO cerebellar slices; experiment: Spontaneous firing of PNs, cell-attached, Fmr1-KO; type: cell-based, mouse; details: 10 μM, Fmr1-KO
[2] = system: PNs, WT cerebellar slices; experiment: Spontaneous firing of PNs, cell-attached, WT; type: cell-based, mouse; details: 10 μM
[3] = target: T1, recombinant full-length FMRP (isoform 1) (Homo sapiens, UniProt Q06787); experiment: In vitro intrinsic protein fluorescence binding assay; details: 500–1000 μM peptide and 1 μM FMRP, 100 mM NaCl, 50 mM Na2PO4 pH 7.4, 2 mM DTT, 20 °C, excitation 287 nm
T1 construct: containing cDNA for full-length human FMRP; His-SUMO (N, cleaved yes); made in house; host or cells: Escherichia coli BL21 (DE3) Codon Plus
Protocol: Small Ubiquitin-like Modifier (SUMO) fusion construct containing cDNA for full-length human FMRP was generated by gene synthesis (GenScript USA Inc.) and subcloned into a pET SUMO vector (Invitrogen). […] The pET SUMO–FMRP construct was transformed into Escherichia coli BL21 (DE3) Codon Plus cells and grown at 37 °C in Lennox broth medium. Protein expression was induced with 0.5 mM isopropyl-β-D-thiogalactopyranoside when optical density reached ~0.6, followed by 18 h of additional growth at 16 °C. Cells were harvested by centrifugation and pellets stored at −20 °C. In order to purify SUMO–FMRP, thawed pellets were resuspended in lysis buffer [50 mM Tris, pH 8.0, 500 mM NaCl, 20 mM imidazole, 10% glycerol, 250 mM arginine, 5 mM benzamidine, and 2 mM dithiothreitol (DTT)], supplemented with DNAse 1 and cOmplete™ Protease Inhibitor Cocktail (Sigma-Aldrich). After cell lysis and centrifugation, the filtered supernatant was loaded onto a 20 ml NiNTA column equilibrated in the same lysis buffer. The column was extensively washed with 20 column volumes (CV) of the same buffer supplemented with 100 mM imidazole. Elution of SUMO-fusion FMRP was performed using 100–500 mM imidazole gradient, and protein-containing fractions were combined and a 6× His tagged Ulp protease was added. Cleavage of the His-SUMO tag was performed overnight in a cold room (7 °C) while dialyzing in 4 L of 50 mM Tris, pH 8.0, 500 mM NaCl, 50 mM imidazole, 10% glycerol, 250 mM arginine, 5 mM benzamidine, and 2 mM DTT. Complete cleavage of the SUMO tag by Ulp was confirmed by SDS-PAGE and the protein of interest was separated from the Ulp protease and SUMO tag by passing the cleavage reaction over a second NiNTA column. Flow-through and wash fractions containing protein of interest were combined and then loaded onto a Superdex 200 gel filtration column pre-equilibrated with the same lysis buffer.
The eluted purified proteins were analyzed by both SDS-PAGE and mass spectrometry, and the combined fractions were dialyzed three times in 5 L of Fluorescence Binding Buffer (100 mM NaCl, 50 mM Na2PO4 pH 7.4, 2 mM DTT). After filtering through a 0.22 μm GV Durapore Centrifugal Filter Unit (Millipore), FMRP concentration was determined by absorbance at 280 nm using a molar extinction coefficient of 48,360 M^−1 cm^−1, and the protein was used for binding studies with Kv1.2 C-terminal peptides.
All measurements were carried out in the Fluorescence Binding Buffer at 20 °C using a PTI Quanta Master 80 Spectrofluorometer (HORIBA Scientific) by monitoring intrinsic protein fluorescence with an excitation wavelength of 287 nm. Prior to performing a binding titration for any of the peptides, a full emission spectrum (300–450 nm) of the peptide:FMRP complex was compared to that of apo-FMRP. Differences in the spectrum of the complex (500–1000 μM peptide and 1 μM FMRP) and apo-FMRP at the same concentration (i.e., fluorescence quenching, enhancement or shifts of the emission maximum) indicated binding. For each of these peptides, binding measurements were performed by adding aliquots of saturated 1 µM FMRP:peptide complex (titration solution) to 400 μL of 1 μM apo-FMRP solution as described by Wells and Di Cera. Briefly, at each titration step, a volume vD was removed from the cuvette containing the apo-FMRP and replaced by an equal volume of the titration solution (1 μM FMRP: 200–500 μM peptide complex). As a result, the concentration of FMRP (1 μM) and total volume of solution in the cuvette, V = 400 μL, remained constant while the concentration of the peptide at the ith titration step, [peptide]i, was increased, and given by
[peptide]i = [peptide]0^i.D^i+[peptide]∞^i.(1 − D^i),
where, [peptide]0 was the initial peptide concentration in the cuvette, [peptide]∞ was the peptide concentration in the titration solution, and D was the dilution factor, D = (V − vD)/V. […]

[4] = system: BC–PN synapse, WT; experiment: sIPSCs from PNs, paired BC–PN recording, WT synapses; type: cell-based, mouse; details: peptide 2.5 mM infused into WT BCs, before and 20 min after; n = 5-6
[5] = system: Kv1.2–FMRP interaction, cerebellar homogenates; experiment: Co-IP of Kv1.2 with FMRP (anti-FMRP antibody), peptide blocking; type: binding; details: WT mouse cerebellar homogenates; 250 μM peptide added prior to anti-FMRP antibody; immunoblot; at least in triplicate
Protocol: Whole cerebellums from WT and Fmr1 KO mice were homogenized in ice-cold Pull-Down buffer (1% Lubrol, 50 mM Tris–HCl, pH 7.4, 10 nM Na-orthovanadate, 30 mM Na-pyrophosphate, 50 mM NaF, 20 μm ZnCl2, and 0.25 mM PMSF, with the addition of protease inhibitor cocktail) using a Potter-Elvehjem grinding chamber (VWR). Samples were then centrifuged at 5000g for 20 min and 500 μL of supernatants were transferred into 1.5 ml Eppendorf tubes. 1:100 dilutions of anti-FMRP (Abcam 17722), anti-Kv1.2 (K14/16; Neuromab), anti-Kv1.2 ext-c (extracellular; Alomone labs), anti-Kv1.2 N-term (NBP1-42802; Novus), or anti-GAPDH (GAPDH-71.1; 1:80,000; Sigma-Aldrich) antibodies were added to the homogenate and incubated at 4 °C under continuous agitation for 2 h. A total 30 μL of a 1:1 mixture of pre-washed protein A and protein G magnabeads (Genscript) was then added and the samples were incubated under the same conditions for another 2 h. Beads were washed 4 times with PBS-Tween (0.2% Tween w/v) and then centrifuged at 3000g for 1 min. A sample was kept to verify total protein input. Protein was disassociated from the beads with the addition of 30 μL of 2× loading buffer (4% SDS, 20% glycerol w/v, 0.1 M dithiothreitol, 100 mM Tris–HCl, pH 6.8) then submitting the samples to 3 min at 95 °C. […] Bands were quantified as previously described using the AlphaEase SA software. […]

NS(=O)(=O)c1cccc2c1c([N+](=O)[O-])cc1nc(O)c(O)nc12 [NBQX]
spontaneous firing of PNs, KO [1]: little effect on the spontaneous firing
spontaneous firing of PNs, WT [2]: little effect on the spontaneous firing

PKIPSSPDLKKSRSASTISKSD [Kv436-457]
change of fluorescence emission spectrum of FMRP (binding) ([3]; listed as non-phosphorylated): no change in the fluorescence emission spectrum of FMRP
change of fluorescence emission spectrum of FMRP (binding) ([3]; listed as non-phosphorylated Kv1.2 C-terminal peptide): no binding
amplitude and frequency of sIPSCs [4]: but not the non-phosphorylated or scrambled phosphorylated peptide, significantly elevated the amplitude and frequency of sIPSCs
inhibition of Kv1.2–FMRP binding (co-IP) [5]: Neither the non-phosphorylated peptide with the identical sequence (Kv436-457, ^436PKIPSSPDLKKSRSASTISKSD^457) nor the doubly-phosphorylated scrambled peptide (IKPSTLSDSRAKpSSDPpSKPSIK) inhibited the Kv1.2–FMRP binding activity
